Assay results taken from patent US20240358779A1, “EXTRACELLULAR VESICLES DERIVED FROM LACTOBACILLUS BACTERIA, AND USE THEREOF” (MD HEALTHCARE INC., priority 2021, published 2024).

Tested on: AMPK
Assay: AMPK phosphorylation (pAMPK) in myocytes (Western blotting)
Format: cell-based
From the text: During fasting or exercising, myocytes are depleted of energy, which causes a decrease in ATP production and an increase in AMP production. It is well known that, in this case, cells activate AMPK signaling to increase cellular homeostasis against metabolic stress. To evaluate a metabolic function regulating effect of Lactobacillus bacteria-derived vesicles, myocytes were each treated with Lactobacillus paracasei-derived vesicles (MDH-001-CM) and Lactobacillus rhamnosus-derived vesicles (MDH-003-CM) at concentrations of 0, 0.1, 1, and 10 μg/ml for 1 hour. Afterwards, the degree of AMPK phosphorylation (pAMPK), an indicator of AMPK signaling, was measured by Western blotting. As control drugs, 1 μM insulin and 50 mM metformin were used.

| Molecule | phosphorylation of AMPK (pAMPK) (50 mM metformin) | phosphorylation of AMPK (pAMPK) (1 μM insulin) |
| --- | --- | --- |
| CN(C)C(=N)N=C(N)N [metformin] | increased |  |
| insulin |  | inhibited |
